The values below come from patent publication US20250064779A1, “COMPOSITIONS AND METHODS FOR THE TREATMENT OF DEPRESSION” (Janssen Pharmaceuticals, Inc., priority 2022, published 2025).

Common to all, as to type: in vivo, human
A short description of data set [1]: Weight change, Example 1. The following applies: n = 85; for Mean weight, Withdrawal Baseline, mean (SE): after 6 weeks in the double-blind treatment phase. An excerpt:
At the lead-in baseline timepoint, the mean weight for subjects in the placebo group was 76.17 kg compared to 78.66 in the aticaprant group. After 6 weeks in the double-blind treatment phase, the mean weight in the placebo group was 75.75 kg compared to 78.57 kg in the aticaprant group. […] This is unexpected because other adjunctive treatments for MDD result in a mean weight increase. See, Thase M, et al. J Clin Psych. 2015: 76(9), 1224-1231; Thase, J Clin Psych. 2015, 76(9):1232-1240; El Khalili, Int J Neuropsychopharmacol. 2010, 13, 917-932; Marcus, J. Clin. Psychopharmacol. […] Nashville, Tenn, ACNP, 2008; Earley, American College of Neuropsychopharmacology, 2007, Annual Meeting Abstracts (Boca Raton, Fla, Dec. 9-13, 2007). Nashville, TN, ACNP, 2007). See, Table 29.

The subject of data set [2] is adjunctive MDD, including treatment-resistant MDD (TRD) and MDD with suicidal ideation (SUI). The data set is described as follows: Biomarker signature (3MM, 2MM, CRP) analysis of MADRS treatment effect across clinical trials (Example 6). How it is done:
Samples of venous blood were obtained from patients and healthy control subjects from subject described in Example 5 and from the other clinical trials referenced herein. Serum or plasma was prepared from the samples of venous blood. Measurements of human CRP and IL-6-R were performed in serum using an MSD Sector 6000 with the kits #K151STD and K151ALC (MesoScale Discovery, Rockville, MD). Human TNFα was quantified in serum using a Simoa HD-1 analyzer with kit #143 (Quanterix, Lexington, MA). All measures were performed according to kit manufacturer's recommendations.
As used in the following biomarker assay analysis, treatment (TRT) refers to treatment with intranasal esketamine plus optionally an oral antidepressant and placebo (PBO) refers to treatment with a placebo plus optionally an oral antidepressant.
The following biomarker signatures were employed: • 3MM: Inflammatory biomarker signature with positive status defined by CRP >3 mg/L and (TNFα>4 pg/mL or sIL6R>25 ng/mL). • 2MM: Inflammatory biomarker signature with positive status defined by CRP >3 mg/L and sIL6R>25 ng/mL. • CRP: Inflammatory biomarker signature with positive status defined by CRP >3 mg/L/
The 3MM signature was tested in clinical trials for adjunctive MDD, including treatment-resistant MDD (TRD) and MDD with suicidal ideation (SUI). […] Significant was driven by Esketamine (ESK) TRD trials.

Data set [3] concerns subjects with TRD. The data set is described as follows: MADRS, intranasal esketamine plus oral antidepressant, open-label long-term study (Example 5).
The subject of data set [4] is subjects with TRD. The data set is described as follows: SDS remission (functional recovery), esketamine long-term study (Example 5). The following applies: observed case. The text has this:
Functional recovery measured by SDS followed with some lag time after mood improvement. […] See, FIG. 32.

The test system of data set [5] is subjects with TRD. The experiment in a line: PHQ-9 total score, esketamine long-term study (Example 5). An excerpt:
This is an open-label, multicenter, long-term study to evaluate the efficacy of intranasal esketamine plus a newly initiated oral antidepressant in subjects with TRD ([…] 3002/NCT02418585).
Each subject participated in up to 4 phases: up to 4-week screening phase (direct-entry subjects only), a 4-week open-label induction (IND) phase (direct-entry subjects and transferred-entry non responder subjects), a 48-week open-label optimization/maintenance (OP/MA) phase (all responder subjects from the open label IND phase of the current study, and transferred-entry responder subjects), and a 4-week follow-up phase. The maximum duration of the subject's participation in […] 3004 study was 60 weeks for direct-entry subjects; 56 weeks for transferred-entry non-responder subjects, and 52 weeks for transferred-entry responder subjects. The sample size of 750 was estimated to have at least 300 subjects received treatment with intranasal esketamine for 6 months and at least 100 subjects for 12 months. In addition, transfer-entry subjects were enrolled from 3005 study to get 100 elderly subjects dosed with esketamine. See, FIG. 30 for the trial design.
The efficacy analyses are based on the full (IND) analysis set and the full (OP/MA) analysis set. […] A total score (0 to 60) is calculated by summing the scores of all 10 items. […]

[6] abbreviates: across the esketamine TRD trials, end of double blind treatment.
Where [7] appears, read: endpoint of OP/MA phase, responders proceeding to OP/MA.

Where “and” joins values, the source holds several entries; their conditions need not be identical. Equal entries are not always repeated.

With `Cc1cc(C)cc(C2CCCN2Cc2ccc(Oc3ccc(C(N)=O)cc3F)cc2)c1` (stereo not drawn) [aticaprant, 3-fluoro-4-4-2-(3,5-dimethylphenyl)pyrrolidin-1-yl-methylphenoxybenzamide], in data set [1], the “Mean weight, Lead-in Baseline, mean (SE)” value was found to be 78.66 kg; the “Mean weight, Screening, mean (SE)” value is 78.42 (1.65) kg; the “Weight: Absolute Change (Withdrawal − Lead-in)” value was -0.09 kg; the “Mean weight, Withdrawal Baseline, mean (SE)” value is listed as 78.57 kg. In addition, the “Weight: Relative % Change” value in data set [1] (Withdrawal vs Lead-in) was −0.11%. In data set [1] (listed as Aticaprant), the “Mean weight, Withdrawal Baseline, mean (SE)” value is recorded as 78.57 (1.71) kg and the “Mean weight, Lead-in Baseline, mean (SE)” value was 78.66 (1.65) kg.

In the case of `CN[C@]1(c2ccccc2Cl)CCCCC1=O` [esketamine, (S)-2-(2-chlorophenyl)-2-(methylamino)cyclohexanone], in data set [2] (TRD2003, Japanese patients), the “treatment effect, change in MADRS, biomarker signature negative patients” value is on record as 2.83 points. In data set [2] (TRD2003, Japanese patients, small n), the “treatment effect, change in MADRS, biomarker signature positive patients” value was found to be 11.69 points. Besides, in data set [2] (across the esketamine TRD trials), the “Signature advantage (difference between subtypes), 3MM” value is 5.8 point. Also, in data set [2] (setting [6]), the “Treatment effect over placebo in 3MM biomarker signature negative subjects (TE SigNeg)” value is 2 MADRS points and 2.0 MADRS points; the “Treatment effect over placebo in 3MM biomarker signature positive subjects (TE SigPos)” value is 7.8 MADRS points. In addition, the “3MM status at baseline as predictor of treatment effect” value in data set [2] (esketamine trials with suicidal ideation (SUI)) is “did not predict treatment effect”. The “MADRS total score: mean change (SD) from Baseline (IND) to End Point (IND)” value in data set [3] (4-week open-label induction phase, intranasal 28/56/84 mg twice weekly) is −16.4 (8.76). Besides, the “MADRS total score: mean change (SD) from Baseline (OP/MA) to End Point (OP/MA)” value in data set [3] (48-week optimization/maintenance phase) is reported as 0.3 (8.12). In data set [3] (End Point, IND phase), the “remission rate (MADRS total score ≤12)” value is given as 47.2% and the “response rate (≥50% improvement from Baseline (IND) in MADRS total score)” value is on record as 78.4%. In data set [3] (setting [7]), the “remitters (MADRS total score ≤12)” value is listed as 58.2% and the “responders (≥50% improvement in MADRS total score)” value worked out at 76.5%. Moreover, the “remission rate measured by SDS” value in data set [4] (OP/MA phase week 4) is on record as 25.2%. For the same compound, the “remission rate measured by SDS” value in data set [4] (OP/MA phase week 48) came out at 51.1%. The “remission rate measured by SDS” value in data set [4] (endpoint of the IND phase) was 21.1%. Also, the “PHQ-9 total score: mean change (SD) from Baseline (IND) to End Point (IND)” value in data set [5] (induction phase) is −8.9 (6.67). Also, in data set [5] (optimization/maintenance phase), the “PHQ-9 total score: mean change (SD) from Baseline (OP/MA) to End Point (OP/MA)” value is reported as −0.2 (5.65).
